Assay: Heat sensitivity of olanzapine Form I wet crystals dried in an air tray drier; Form II content quantified by XRPD
Format: physicochemical
Conditions: 8 hours, LOQ about 0.5% by weight
Experimental: Olanzapine Form I wet crystals obtained by following the process similar to that given in Example 1 were taken and dried at different temperatures in an air tray drier for 8 hours to check the impact on the crystalline purity of Form I obtained. The results are tabulated below in Table 1:
497.5 mg of olanzapine Form I and 2.5 mg of olanzapine Form II (weight ratio of olanzapine Form Ito Form II of 99.5:0.5) were weighed and mixed with 50.0 mg of lithium fluoride. The mixture was mixed and ground three times using a mortar and pestle made of agate to get a homogeneous fine powder. A maximum quantity of the finely ground sample was packed in a sample holder and this was used as the standard for powder X-ray diffraction analysis.
500 mg of olanzapine Form I test sample was weighed and mixed with 50 mg of lithium fluoride. The mixture was mixed and ground three times using a mortar and pestle made of agate to get a homogeneous fine powder. A maximum quantity of the finely ground sample was packed in a sample holder and this was used as the test sample for the analysis.
The standard and the test sample were analyzed and the intensity at 8.60° (2θ) in the diffractogram of the test sample was compared with respect to that of the 0.5% standard. If the test sample intensity at 8.60° (2θ) is more than that of the 0.5% standard, then the presence of Form II in Form I is more than 0.5%. If the test sample intensity at 8.60° (2θ) is less than that of the 0.5% standard, then the presence of Form II in Form I is less than 0.5%.

SMILES: Cc1cc2c(s1)Nc1ccccc1N=C2N1CCN(C)CC1 [Olanzapine Form I, 2-methyl-4-(4-methyl-1-piperazinyl)-10H-thieno[2,3-b][1,5]benzodiazepine]
- Form II content (%) (drying temperature 60 °C): Less than 0.5%
- Form II content (%) (drying temperature 75-80 °C): Less than 0.5%
- Form II content (%) (drying temperature 100 °C): Less than 0.5%
- Form II content (%) (drying temperature 125 °C): More than 0.5%
- Form II content (%) (drying temperature 150 °C): More than 0.5%
- Form II content (%) (drying temperature 180 °C): More than 0.5%
